Assay results reported in US20220380408A1, “COMPOSITIONS AND METHODS FOR INHIBITING NEOINTIMAL FORMATION” (University of Virginia Patent Foundation, priority 2019, published 2022).
“Also recorded” adds a separate entry of the source. Ends that are not written are not given here. * marks the point of attachment. Stearoyl = CCCCCCCCCCCCCCCCCC(=O)*

Experiments:
cyclin D = test: Co-immunoprecipitation of Cx43 with cyclin D in human coronary artery smooth muscle cells; type: cell-based; details: hCASMC
Experimental: (§1) Protein expression and interaction in cultured human coronary artery smooth muscle cells. Human coronary artery smooth muscle cells (Thermo Fisher Scientific, Inc., Waltham, Massachusetts, United States of America), were cultured until confluent in M231 media containing growth supplement (Thermo Fisher Scientific, Low Serum Growth Supplement Kit (LSGS) kit) as well as 20% fetal bovine serum (FBS). Prior to incubations, media was switched to low serum media (M231+2% FBS) for 3 days as previously described (Lohman et al., 2016). Cells were then incubated with oxidized phospholipids 1-palmitoyl-2-glutaroyl-sn-glycero-3-phosphorylcholine (PGPC, 100 μg) and 1-palmitoyl-2-oxovaleroyl-sn-glycero-3-phosphorylcholine (POVPC 100 μg), or the growth factor platelet derived growth factor beta (PDGF, 20 ng) as we have previously described (Johnstone et al. 2009; Johnstone et al. 2012) for 48 hours prior to harvesting and analysis for Western blotting and co-immunoprecipitation and EDU proliferation by flow cytometry as previously described (Johnstone et al. 2012). For peptide incubations, peptides were pre-incubated for 30 minutes with cells in fresh media prior to adding any further treatments.
However, the ability to bind with, and therefore activate, cyclin D was inhibited in the presence of PGPC (see FIG. 2A). […]

[1] = test system: Human coronary artery smooth muscle cells; test: EDU proliferation by flow cytometry in cultured human coronary artery smooth muscle cells; type: cell-based; details: for proliferation (EDU incorporation, flow cytometry): hCASMC incubated with agent for 48 hours (PGPC 100 μg, POVPC 100 μg, PDGF 20 ng)
Experimental: as §1
However, the ability to bind with, and therefore activate, cyclin D was inhibited in the presence of PGPC (see FIG. 2A). […] Taken together, this identified Cx43 phosphorylation status as a molecular switch that controlled cellular proliferation (MAPK-Cx43) or quiescence (PKC-Cx43), a model that is depicted in see FIG. 2C.
(§2) Peptides representing sequences within the C-terminus of human Cx43, designed by peptide array, inhibited proliferation of human smooth muscle cells (see FIGS. 3A-3F). Cells were pretreated for 30 minutes with peptides, prior to incubation with PDGF for 2 days.

[2] = test system: human saphenous vein tissues; test: Ex vivo human saphenous vein explant model (HUSVEM); type: cell-based; details: PDGF 50 ng/mL, 14 days, peptide 30 μM, everolimus 10 nM
Experimental: Ex vivo, human saphenous vein explant model (HUSVEM). The translational relevance of the peptides was assessed in an ex vivo, human saphenous vein explant model (HUSVEM) based on previously validated protocols (Baker et al. 1997; Dreifaldt et al. 2013; Loesch, Dashwood & Souza, 2006; George et al., 1996). Briefly, human veins were obtained as excess tissue from coronary artery bypass surgeries. The protocol was assessed by the Institutional Review Board (IRB) of the University of Virginia (Charlottesville, Va., United States of America), and no IRB protocol was required. Human saphenous veins were opened laterally, cut into 10 mm sections, and pinned with the endothelial side facing up on SYLGARD® brand silicone curing agent-coated plates in RMPI media containing 2% FBS. After 1 hour, cells were incubated with either control peptide or CycliCx peptide (30 μM; LDPAKDCGDQKYAY; SEQ ID NO: 1) or everolimus (10 nM; Sigma Aldrich) for a further 60 minutes, prior to adding PDGF (50 ng/mL). Media was changed daily with fresh media containing peptides or everolimus and PDGF. At the end of 14 days media was removed and tissues fixed in 4% PFA for 24 hours then washed in 70% ethanol, prior to embedding in 3% agarose. Samples were then processed by routine paraffin embedding and stained using hematoxylin and eosin and van Gieson stains. Comparisons of neointmal growth were made, where the uppermost layer of elastin was used to identify the start region for formed neointima. Neointimal areas were calculated across 10 serial sections from each tissue and averaged. Analysis of PDGF treated vessels to peptide and everolimus treated tissues were made.
An exemplary CycliCx peptide (LDPAKDCGDQKYAY; SEQ ID NO: 1) was applied to human saphenous veins in ex vivo preparations for 2 weeks in the presence of PDGF and compared to everolimus, an agent used in drug eluting stents.

mouse carotid arteries = test: Mouse carotid ligation neointimal formation model; type: in vivo; details: for Neointimal/media Ratio (±SEM): carotid ligation, 200 μg peptide in pluronic, 2 weeks
Experimental: Mouse carotid surgeries. Carotid ligation and pluronic application surgeries were performed as described (Johnstone et al. 2009; Johnstone et al. 2012). Briefly, mice were anesthetized by isoflurane and the left common carotid artery was exposed and carefully freed from surrounding tissue. A 6/0 silk suture was run under the carotid artery distal to the bifurcation site and two consecutive, flat square knots were tied tight enough to restrict blood flow. Control mice were surgical controls, where carotid artery was exposed and freed of surrounding tissue as described above but no suture was applied. Following ligation either 35% F127 pluronic gel, CycliCx peptide (200 μg in pluronic; LDPAKDCGDQKYAY; SEQ ID NO: 1) or control peptide (200 μg in pluronic; AYFNGCSSPTAPLDP; SEQ ID NO: 3) was applied to the outside of the carotid wall and surgical wound closed. At 2 weeks after surgery, mice were euthanized with an intraperitoneal injection of 60-90 mg/kg pentobarbital. Mice were perfused with 4% paraformaldehyde (PFA) and both treated (left common) and control (right common) carotids removed and stored in 4% PFA overnight for whole mount analysis or immunosectioning. For in vivo cell proliferation studies, mice were preinjected with 5-ethynyl-2′-deoxyuridine (EDU) prior to surgery and carotids were removed post-treatment for whole mount or tissue cross section analysis of EDU incorporation into proliferating cells. For analysis of neointima formation in vessels, areas corresponding to the media (containing vascular smooth muscle cells (VSMC)), neointima (containing proliferating VSMC) and lumen (void area) were measured on Haemotoxylin and Eosin (H&E) stained cross sections of carotid vessels and analyzed by Image J, image analysis software. The ratio of media:neointima was calculated.
An exemplary CycliCx peptide (LDPAKDCGDQKYAY; SEQ ID NO: 1) was applied to the carotids of mice for 14 days after placement of a suture to induce neointimal formation (FIG. 4A). In both ligation only and ligation with peptide, extensive neointima formed. […] Effects were tested in both male and female mice, and no sex-specific differences were noted (FIG. 4B and Table 1).

cyclin E [3] = biological target: T1, cyclin E (Homo sapiens, UniProt P24864); test: Peptide array (truncation array) probed with cyclin E protein; type: binding; design: made in house; details: based on mouse Cx43 sequence; cyclin E 10 μg/mL overnight
Excerpt: Peptide array. The C-terminus of the human Cx43 polypeptpide (Cx43-CT) is about 150 amino acids (a.a.) with a high abundance (>10%) of post-translationally modified sites (Aasen et al., 2018). This means that hundreds of combinations are required to delineate binding parameters. Using novel peptide array technology, the sites of interaction between connexin 43 (Cx43) and cyclin E were mapped. Immobilized peptide libraries corresponding to 25-residue regions of Cx43-CT were designed, synthesized, and nitrocellulose arrays generated. To test the requirement for phosphorylation, specific residues were replaced to mimic known protein interacting states (e.g., MAPK-Cx43 serines 255/262/279/282; see Johnstone et al. 2012). The role for phosphorylation was assayed in binding using single and multiple residue replacements. These included wild-type serine (S), native phospho-serine (pS), aspartate (D, phospho-mimic), or alanine (A, phospho-null) residues. Recombinant human cyclin E protein was generated for incubation with arrays (Johnstone et al. 2012). […] Signal was then detected using electrochemiluminescence (ECL) detection reagents as per manufacturer protocol (PIERCE™ brand, available from Thermo Fisher Scientific, Inc., Waltham, Mass., United States of America) and blots were scanned for analysis. […]

cyclin E [4] = biological target: T1, cyclin E; test: Co-immunoprecipitation of Cx43/cyclin E interaction in human SMC; type: cell-based; design: host or cells: human coronary artery smooth muscle cells; details: versus no peptide and scrambled peptide
Experimental: as §1
Peptides representing sequences within the C-terminus of human Cx43, designed by peptide array, inhibited proliferation of human smooth muscle cells (see FIGS. 3A-3F). […]

Cx43 = test: Western blot of Cx43 phosphorylation status in human coronary artery smooth muscle cells; type: cell-based; details: hCASMC
Experimental: as §1, §2

[5] = test system: triple negative breast cancer (Hs578T); test: WST-1 (viability/MTT) assay of cancer cell proliferation, Hs578T; type: cell-based, human; details: single treatment 30 μM at day 0; versus control peptide
Experimental: (§3) Two cancer cell lines originating from human melanoma (A375-MA2) and triple negative breast cancer (Hs578T) were used to assess the role of CycliCx in inhibiting proliferation. 500 cells per well were cultured in a 96-well plate containing 100 μl of medium. The next day (Day 0), 30 μM of CycliCx peptide or control peptide was added to the cells. Starting from Day 0, 10 μl of WST-1 reagent (viability/MTT) was added to each well and incubated for 75 minutes. Absorbance was measured at 450 nm. Data are presented in FIGS. 6B (A375-MA2) and 6C (Hs578T) as mean±SEM. p<0.05 by two way ANOVA.

[6] = test system: human melanoma (A375-MA2); test: WST-1 (viability/MTT) assay of cancer cell proliferation, A375-MA2; type: cell-based; details: single treatment 30 μM at day 0; versus control peptide
Experimental: as §3

T1 sequence (P24864 whole entry, the tested form may be a part): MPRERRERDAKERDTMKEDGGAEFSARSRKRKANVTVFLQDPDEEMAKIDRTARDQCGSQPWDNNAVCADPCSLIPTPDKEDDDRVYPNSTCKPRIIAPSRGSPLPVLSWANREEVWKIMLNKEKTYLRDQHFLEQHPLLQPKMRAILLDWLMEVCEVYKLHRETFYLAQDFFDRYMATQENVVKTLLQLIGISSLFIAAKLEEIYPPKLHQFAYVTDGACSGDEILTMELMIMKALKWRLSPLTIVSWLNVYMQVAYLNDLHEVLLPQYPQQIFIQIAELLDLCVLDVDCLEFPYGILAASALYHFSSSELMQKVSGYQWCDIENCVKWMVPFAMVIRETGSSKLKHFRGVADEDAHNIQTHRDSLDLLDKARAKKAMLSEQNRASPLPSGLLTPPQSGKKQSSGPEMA

With `CCCCCCCCCCCCCCCC(=O)OC[C@H](COP(=O)([O-])OCC[N+](C)(C)C)OC(=O)CCCC(=O)O` [PGPC, 1-palmitoyl-2-glutaroyl-sn-glycero-3-phosphorylcholine, reference compound] the “ability of Cx43 to bind with, and therefore activate, cyclin D” value (cyclin D) was “inhibited” and the “proliferation (EDU incorporation, flow cytometry)” value [1] was “decreased proliferation”.

In the case of `CCCCCCCCCCCCCCCC(=O)OC[C@H](COP(=O)([O-])OCC[N+](C)(C)C)OC(=O)CCCC=O` [POVPC, 1-palmitoyl-2-oxovaleroyl-sn-glycero-3-phosphorylcholine, reference compound], the “proliferation (EDU incorporation, flow cytometry)” value [1] is reported as “increased proliferation”.

For `CO[C@H]1C[C@@H]2CC[C@@H](C)[C@@](O)(O2)C(=O)C(=O)N2CCCC[C@H]2C(=O)O[C@H]([C@H](C)C[C@@H]2CC[C@@H](OCCO)[C@H](OC)C2)CC(=O)[C@H](C)/C=C(\C)[C@@H](O)[C@@H](OC)C(=O)[C@H](C)C[C@H](C)/C=C/C=C/C=C/1C` [everolimus, reference compound], the “neointimal formation in human saphenous veins” value [2] was “inhibited neointimal formation”.

With “AYFNGCSSPTAPLDP [Control Pep, non-targeting control peptide, reference compound]” the “neointimal formation in human saphenous veins” value [2] was “neointima were identified”, the “Neointimal/media Ratio (±SEM)” value (mouse carotid arteries; female mice) was 1.017 ± 0.3869 and the “Neointimal/media Ratio (±SEM)” value (mouse carotid arteries; male mice) was 0.6690 ± 0.1111.

DPSKDCGDPKYAY was tested, and the “sequence required for cyclin E binding in truncation-based array” value (cyclin E [3]) was “minimum sequence”.

With “LDPSKDCGDPKYAY [pep3(mouse), CycliCx peptide with mouse Cx43 residues at positions 257 and 263]” the “interactions with cyclin E (co-immunoprecipitation)” value (cyclin E [4]) was “significantly reduced”, the “PKC-phosphorylated Cx43 species (western blot, pS368)” value (Cx43) was “predominantly induced” and the “phosphorylation status of Cx43 (western blot)” value (Cx43) was “altered”. For the same molecule, the “phosphorylation status of Cx43 (western blot)” value (Cx43; listed as pep3) was “significantly altered”.

In the case of “stearate-LDPAKDCGDQKYAY (Stearoyl-LDPAKDCGDQKYAY) [CycliCx]”, the “proliferation of Hs578T cells” value [5] is reported as “significantly inhibit proliferation”, the “neointimal formation in human saphenous veins” value [2] is reported as “inhibited neointimal formation; also recorded: completely inhibited” and the “Neointimal/media Ratio (±SEM)” value (mouse carotid arteries; female mice) is reported as 0.0060 ± 0.0379. For the same molecule, the “Neointimal/media Ratio (±SEM)” value (mouse carotid arteries; male mice) was 0.0110 ± 0.0055, the “neointimal formation induced by suture ligation” value (mouse carotid arteries; mouse carotid, peptide applied for 14 days) was “completely inhibited; also recorded: prevented” and the “proliferation of A375-MA2 cells” value [6] was “significantly inhibit proliferation”. For the same molecule, the “EDU incorporation (proliferation) of human smooth muscle cells” value ([1]; peptide pretreatment 30 minutes, then PDGF for 2 days, versus PDGF alone or Scr peptide) was “reduced”.

B1: platelet derived growth factor beta (protein, UniProt P01127 82-190, looked up)
Platelet-derived growth …: SLGSLTIAEPAMIAECKTRTEVFEISRRLIDRTNANFLVWPPCVEVQRCSGCCNNRNVQCRPTQVQLRPVQVRKIEIVRKKPIFKKATVTLEDHLACKCETVAAARPVT
notes: growth factor promoting MAPK phosphorylation of Cx43
In the case of B1, the “proliferation (EDU incorporation, flow cytometry)” value [1] is reported as “increased proliferation”.
